Measurements: patent US10258639B2, “Methods for treating insulin resistance and for sensitizing patients to GLP1 agonist therapy” (Research Development Foundation, priority 2014, dated 2019)

Tested on: INS1 cells
Experiment: RNAseq of INS1 cells infected with ACREB compared to GFP and stimulated with FSK
Format: cell-based, rat
Design: Irs2 RNAseq value, FSK / MafA RNAseq value, FSK / Nr4a2 RNAseq value, FSK / Diras2 RNAseq value, FSK: unit not given here
Conditions: for Diras2 fold induction / Irs2 fold induction / MafA fold induction / Nr4a2 fold induction: FSK vs control; for Diras2 RNAseq value, FSK / Irs2 RNAseq value, FSK / MafA RNAseq value, FSK / Nr4a2 RNAseq value, FSK: stimulated with FSK
Procedure: Transcriptome-wide studies were performed to identify CREB target genes that promote insulin expression and secretion. […] INS-1 insulinoma cells were cultured in RPMI (corning cellgro) containing 10% fetal bovine serum (Gemini Bio Products), 100 μg/mL penicillin-streptomycin and 1 mM sodium pyruvate (corning cellgro). MIN6 cells were grown in DMEM (corning cellgro) with 10% FBS, 100 μg/mL penicillin-streptomycin and 70 uM beta-mercaptoethanol. For chronic glucose experiments, cells were maintained under low (2.8 mM) or high (20 mM) glucose for 3 days. Exendin-4 (10 nM), Forskolin (10 μM), KCl (40 mM), DMOG (1 mM) and rapamycin (50 nM) were added to cells as indicated. Cellular cAMP levels were measured using an ELISA kit (Cayman Chemical Company) according to manufacturer's instructions. Total RNAs from cells or primary islets were extracted using Trizol and cDNA was generated using the Transcriptor First Strand cDNA Synthesis kit (Roche Applied Science). cDNAs were quantified on a lightcycler 480 instrument (Roche Applied Science). Gene expression data were presented relative to the expression of housekeeping gene L32 (rat samples) and 18S (mouse and human islets). RNA-Seq libraries were prepared using the mRNA isolation protocol and the NEBNext-Ultra kits from New England Biolabs following the manufacturer's protocols. Libraries were quantitated by Qubit (Invitrogen), and run on a MiSeq instrument with paired-end 75 bp reads using v3 chemistry (Illumina) Data were analyzed by tophat2 and cuffdiff against the mouse mm10 genome build. The GEO accession number for RNAseq studies reported in the paper is GSE60158.

- Diras2 fold induction (INS1 cells infected with ACREB): 1.7 fold
- Irs2 fold induction (INS1 cells infected with ACREB): 2.3 fold
- MafA fold induction (INS1 cells infected with ACREB): 3.7 fold
- Nr4a2 fold induction (INS1 cells infected with ACREB): 6.3 fold
- Diras2 fold induction (INS1 cells infected with GFP): 11.5 fold
- Irs2 fold induction (INS1 cells infected with GFP): 5.6 fold
- MafA fold induction (INS1 cells infected with GFP): 8.7 fold
- Nr4a2 fold induction (INS1 cells infected with GFP): 56.6 fold
Compound: C=C[C@@]1(C)CC(=O)[C@]2(O)[C@@]3(C)[C@@H](O)CCC(C)(C)[C@@H]3[C@H](O)[C@H](OC(C)=O)[C@@]2(C)O1 [FSK, Forskolin]
- Diras2 RNAseq value, FSK (INS1 cells infected with ACREB): 109.5
- Irs2 RNAseq value, FSK (INS1 cells infected with ACREB): 38.8
- MafA RNAseq value, FSK (INS1 cells infected with ACREB): 90.2
- Nr4a2 RNAseq value, FSK (INS1 cells infected with ACREB): 5.5
- Diras2 RNAseq value, FSK (INS1 cells infected with GFP): 519.7
- Irs2 RNAseq value, FSK (INS1 cells infected with GFP): 289.9
- MafA RNAseq value, FSK (INS1 cells infected with GFP): 474.4
- Nr4a2 RNAseq value, FSK (INS1 cells infected with GFP): 106.5
